Data on 26 compounds can be found in US11192914B2, “Alkyne containing nucleotide and nucleoside therapeutic compositions and uses related thereto” (Emory University, priority 2016, dated 2021).

The target in data set [1] is T1, ZIKV NS5 RdRp (Zika virus, UniProt Q32ZE1).
T1 construct: activity of select analog triphosphates against the ZIKV NS5 RdRp
The class given is biochemical. To be noted: analog triphosphates against ZIKV NS5 RdRp.

The subject of data set [2] is HRV-26. Briefly: Human rhinovirus assay (HRV-26). The class given is cell-based. The note with it: Human rhinovirus sp., HRV26; Cell Line HeLa.
In data set [3] the test system is ZIKV. Briefly: ZIKV infectious (cytoprotection, XTT) assay. The class given is cell-based. To be noted: Zika virus.
Data set [4] relates to ZIKV. In words: ZIKV infectious (cytoprotection, XTT) assay. The class given is cell-based, Zika virus. The note with it: read-out: ZIKV EC50. The procedure:
(§1) Vero cells were passaged in DMEM medium in T-75 flasks prior to use in the antiviral assay. On the day preceding the assay, the cells were split 1:2 to assure they were in exponential growth phase at the time of infection. The cells were resuspended at […] cells per well in tissue culture medium and added to flat bottom microtiter plates in a volume of […]. The plates were incubated at 37° C./5% CO2 overnight to allow for cell adherence. Separately, Zika virus was titrated in LLCMK2 cells to define the inoculum for use in the antiviral assay. Virus was diluted in DMEM medium such that the amount of virus added to each well in a volume of […] was the amount determined to achieve 85 to 95% cell killing at 5 days post-infection. Following incubation test plates were stained with XTT dye. XTT solution was prepared daily as a stock solution of 1 mg/mL in RPM11640. PMS solution was prepared at 0.15 mg/mL in PBS and stored in the dark at −20° C. XTT/PMS stock was prepared immediately before use by adding […] of PMS per mL of XTT solution. Fifty microliters of XTT/PMS was added to each well of the plate, and the plate was reincubated for 4 hours at 37° C. Plates were sealed with adhesive plate sealers ad shaken gently to mix the soluble formazan product, and the plate was read spectrophotometrically read 450/650 nm with a Molecular Devices Vmax plate reader. The raw data was collected from Softmax Pro and imported into a Microsoft Excel XLfit4 spreadsheet for analysis using four parameter curve fit calculations.

A short description of data set [5]: Cytotoxicity in Vero cells (XTT). Type of data set: cell-based, African green monkey. The note with it: African green monkey. The procedure: as §1
Data set [6] deals with DENV2 New Guinea C. Briefly: Anti-Dengue virus cytoprotection assay. Type of data set: cell-based, Dengue virus type 2. How it is done:
Cell Preparation—BHK21 cells (Syrian golden hamster kidney cells, ATCC catalog #CCL-I 0), Vero cells (African green monkey kidney cells, ATCC catalog #CCL-81), or Huh-7 cells (human hepatocyte carcinoma) were passaged in DMEM supplemented with 10% FBS, 2 mM L-glutamine, 100 U/mL penicillin, and 100 μg/mL streptomycin in T-75 flasks prior to use in the antiviral assay. On the day preceding the assay, the cells were split 1:2 to assure they were in an exponential growth phase at the time of infection. Total cell and viability quantification was performed using a hemocytometer and Trypan Blue dye exclusion. Cell viability was greater than 95% for the cells to be utilized in the assay. The cells were resuspended at 3×10^3 ([…] for Vero cells and Huh-7 cells) cells per well in tissue culture medium and added to flat bottom microtiter plates in a volume of 100 μL. The plates were incubated at 37° C./5% CO2 overnight to allow for cell adherence.
Virus Preparation—The Dengue virus type 2 New Guinea C strain was obtained from ATCC (catalog #VR-1584) and was grown in LLC-MK2 (Rhesus monkey kidney cells; catalog #CCL-7.1) cells for the production of stock virus pools. An aliquot of virus pretitered in BHK21 cells was removed from the freezer (−80° C.) and allowed to thaw slowly to room temperature in a biological safety cabinet. Virus was resuspended and diluted into assay medium (DMEM supplemented with 2% heat-inactivated FBS, 2 mM L-glutamine, 100 U/mL penicillin, and 100 μg/mL streptomycin) such that the amount of virus added to each well in a volume of 100 μL was the amount determined to yield 85 to 95% cell killing at 6 days post-infection.
Plate Format—Each plate contains cell control wells (cells only), virus control wells (cells plus virus), triplicate drug toxicity wells per compound (cells plus drug only), as well as triplicate experimental wells (drug plus cells plus virus).
Efficacy and Toxicity XTT-Following incubation at 37° C. in a 5% CO2 incubator, the test plates were stained with the tetrazolium dye XTT (2,3-bis(2-methoxy-4-nitro-5-sulfophenyl)-5-[(phenylamino)carbonyl]-2H-tetrazolium hydroxide). XTT-tetrazolium was metabolized by the mitochondrial enzymes of metabolically active cells to a soluble formazan product, allowing rapid quantitative analysis of the inhibition of virus-induced cell killing by antiviral test substances. XTT solution was prepared daily as a stock of 1 mg/mL in RPMI 1640. Phenazine methosulfate (PMS) solution was prepared at 0.15 mg/mL in PBS and stored in the dark at −20° C. XTT/PMS stock was prepared immediately before use by adding 40 μL of PMS per ml of XTT solution. Fifty microliters of XTT/PMS was added to each well of the plate and the plate was reincubated for 4 hours at 37° C. Plates were sealed with adhesive plate sealers and shaken gently or inverted several times to mix the soluble formazan product and the plate was read spectrophotometrically at 450/650 nm with a Molecular Devices Vmax plate reader.
Data Analysis —Raw data was collected from the Softmax Pro 4.6 software and imported into a Microsoft Excel spreadsheet for analysis. The percent reduction in viral cytopathic effect compared to the untreated virus controls was calculated for each compound. The percent cell control value was calculated for each compound comparing the drug treated uninfected cells to the uninfected cells in medium alone.

Data set [7] relates to C#CC1(O)C(O)[C@@H](COP(=O)(O)OP(=O)(O)OP(=O)(O)O)O[C@H]1n1ccc(=O)[nH]c1=O. Briefly: purified protein, by the assay type.
Data set [8] concerns C#CC1(O)C(O)[C@@H](COP(=O)(O)OP(=O)(O)OP(=O)(O)O)O[C@H]1n1cnc2c(N)ncnc21. In words: purified protein, by the assay type.
Data set [9] deals with CC1(O)C(O)[C@@H](COP(=O)(O)OP(=O)(O)OP(=O)(O)O)O[C@H]1n1ccc(N)nc1=O. In words: purified protein, by the assay type.
The test system of data set [10] is CC1(O)C(O)[C@@H](COP(=O)(O)OP(=O)(O)OP(=O)(O)O)O[C@H]1n1cnc2c(=O)[nH]c(N)nc21. Briefly: purified protein, by the assay type.
The subject of data set [11] is CC1(O)C(O)[C@@H](COP(=O)(O)OP(=O)(O)OP(=O)(O)O)O[C@H]1n1cnc2c(N)ncnc21. In words: purified protein, by the assay type.
Data set [12] has as its system CC1(O)C(O)[C@@H](COP(=O)(O)OP(=O)(O)OP(=O)(O)O)O[C@H]1n1ccc(=O)[nH]c1=O. In words: purified protein, by the assay type. Type of data set: biochemical, Zika virus.
Data set [13] relates to Vero cells. In words: Cytotoxicity in Vero cells (XTT). The class given is cell-based, African green monkey. The procedure:
as §1

[14] abbreviates: Zika virus, Vero, ZIKV infectious assay, Vero cells.
Setting [15] is: Huh-7, Cell Line Huh-7, read-out: ZIKV EC50.
[16] abbreviates: Zika virus, Vero, Cell Line Vero.

Read-outs that look alike come from different tables or passages of the source. Bounds are passed on as bounds.

T1 sequence (Q32ZE1 2517-3419): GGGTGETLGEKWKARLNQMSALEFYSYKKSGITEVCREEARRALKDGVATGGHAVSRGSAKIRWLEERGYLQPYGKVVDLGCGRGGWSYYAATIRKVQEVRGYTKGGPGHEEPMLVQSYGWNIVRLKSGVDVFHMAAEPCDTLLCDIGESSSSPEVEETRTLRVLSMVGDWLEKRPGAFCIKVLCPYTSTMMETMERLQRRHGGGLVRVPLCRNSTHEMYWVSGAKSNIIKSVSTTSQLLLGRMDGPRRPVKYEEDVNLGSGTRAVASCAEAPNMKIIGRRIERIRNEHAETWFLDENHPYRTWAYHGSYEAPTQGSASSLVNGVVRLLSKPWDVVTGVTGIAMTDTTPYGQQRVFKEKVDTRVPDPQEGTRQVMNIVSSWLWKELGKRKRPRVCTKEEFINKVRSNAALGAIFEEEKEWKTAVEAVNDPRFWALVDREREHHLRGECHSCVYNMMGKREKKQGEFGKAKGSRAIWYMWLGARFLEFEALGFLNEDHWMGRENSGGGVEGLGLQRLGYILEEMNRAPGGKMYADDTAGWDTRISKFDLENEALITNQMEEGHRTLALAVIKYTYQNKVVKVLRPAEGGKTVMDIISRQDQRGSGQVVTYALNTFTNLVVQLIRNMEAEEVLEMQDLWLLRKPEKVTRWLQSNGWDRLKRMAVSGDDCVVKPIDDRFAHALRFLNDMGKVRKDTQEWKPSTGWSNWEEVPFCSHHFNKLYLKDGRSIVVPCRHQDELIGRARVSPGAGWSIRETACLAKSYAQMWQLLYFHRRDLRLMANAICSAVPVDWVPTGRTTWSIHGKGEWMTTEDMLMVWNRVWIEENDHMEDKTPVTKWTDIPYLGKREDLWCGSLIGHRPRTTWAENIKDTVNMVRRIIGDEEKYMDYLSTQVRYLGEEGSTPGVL

For the compound `C#CC1(O)C(O)[C@@H](COP(=O)(O)OP(=O)(O)OP(=O)(O)O)O[C@H]1n1cnc2c(N)ncnc21` (some centres unmarked), the “ZIKV Polymerase Assay Discrimination” value in data set [1] was 5.

In [2], `C#C[C@@]1(O)[C@H](O)[C@@H](CO[P@@](=O)(N[C@@H](C)C(=O)OC(C)C)Oc2ccccc2)O[C@H]1n1ccc(=O)[nH]c1=O` [drawing 742] gave an EC50 of 3.22 µM.

For `C#C[C@@]1(O)[C@H](O)[C@@H](CO)O[C@H]1n1cnc2cnc(N)nc21` [drawing 747], in data set [3] (HeLa, Cell Line HeLa, read-out: ZIKV EC50), the EC50 is over 100 µM.

As to `C#C[C@@]1(O)[C@H](O)[C@@H](CO[P@@](=O)(N[C@@H](C)C(=O)OC(C)C)Oc2ccccc2)O[C@H]1n1ccc2c(N)ncnc21` [drawing 744], the EC50 in data set [3] (Huh-7, read-out: ZIKV EC50) stood at 0.001 µM.

Turning to `CC1(O)C(O)[C@@H](CO)O[C@H]1n1ccc(N)nc1=O` (some centres unmarked), in data set [4] (setting [14]), the concentration giving a half-maximal response (EC50) is 0.13 µM. The same compound yielded a CC50 at 5 days in [5] of 9.57 µM.

In the case of `C#CC1(O)C(O)[C@@H](COP(=O)(OCOC(=O)C(C)(C)C)OCOC(=O)C(C)(C)C)O[C@H]1n1cc(F)c(=O)[nH]c1=O` (some centres unmarked), the EC50 in data set [3] (setting [15]) was 5.3 µM.

With `C#C[C@@]1(O)[C@H](O)[C@@H](CO)O[C@H]1n1ccc(=O)[nH]c1=O`, the EC50 in data set [4] (setting [16]) and in [3] (setting [15]) was over 100 µM each time.

As for `CC1(O)C(O)[C@@H](COP(=O)(O)OP(=O)(O)OP(=O)(O)O)O[C@H]1n1ccc(N)nc1=O` (some centres unmarked), the “ZIKV Polymerase Assay Discrimination” value in data set [1] is 7.

For the compound `C#C[C@@]1(O)[C@H](O)[C@@H](CO)O[C@H]1n1cnc2cnc(N)nc21` [drawing 751], the EC50 in data set [4] (setting [16]) was over 100 µM.

For the compound `C#C[C@@]1(O)[C@H](O)[C@@H](CO[P@@](=O)(N[C@@H](C)C(=O)OC(C)C)Oc2ccccc2)O[C@H]1n1cc(F)c(=O)[nH]c1=O`, the EC50 was over 100 µM in [4] (Zika virus, Vero) and 13 µM in data set [3] (Huh-7, read-out: ZIKV EC50).

Turning to `C#CC1(O)C(O)[C@@H](COP(=O)(OCOC(=O)C(C)(C)C)OCOC(=O)C(C)(C)C)O[C@H]1n1ccc(=O)[nH]c1=O` (some centres unmarked) [drawing 679], the EC50 in [4] (setting [14]) turned out to be 1.06 µM. It took 11 µM to reach half-maximal cytotoxicity in data set [5] (CC50 at 5 days).

Turning to `CC1(O)C(O)[C@@H](CO)O[C@H]1n1cnc2c(=O)[nH]c(N)nc21` (some centres unmarked), the EC50 in data set [4] (setting [14]) turned out to be 7.23 µM. In data set [5], this compound returned a CC50 at 5 days of over 100 µM.

On to `C#C[C@@]1(O)[C@H](O)[C@@H](CO)O[C@H]1n1cnc2cnc(N)nc21` [drawing 741], for which the concentration for a half-maximal effect (EC50) in [6] (DENV2, Vero, read-out: DENV2 New Guinea C EC50) was over 100 µM.

`CC1(O)C(O)[C@@H](COP(=O)(O)OP(=O)(O)OP(=O)(O)O)O[C@H]1n1cnc2c(N)ncnc21` (some centres unmarked): the “ZIKV Polymerase Assay Discrimination” value in data set [1] was 12.

For the compound `CC1(O)C(O)[C@@H](COP(=O)(O)OP(=O)(O)OP(=O)(O)O)O[C@H]1n1ccc(=O)[nH]c1=O` (some centres unmarked), the “ZIKV Polymerase Assay Discrimination” value in data set [1] is recorded as 53.

In the case of `CC1(O)C(O)[C@@H](COP(=O)(O)OP(=O)(O)OP(=O)(O)O)O[C@H]1n1cnc2c(=O)[nH]c(N)nc21` (some centres unmarked), the “ZIKV Polymerase Assay Discrimination” value in data set [1] is listed as 13.

Regarding `C#C[C@@]1(O)[C@H](O)[C@@H](CO[P@@](=O)(N[C@@H](C)C(=O)OC(C)C)Oc2ccccc2)O[C@H]1n1ccc(=O)[nH]c1=O` [drawing 746], the EC50 in data set [4] (Zika virus, Vero) was over 100 µM; in data set [3] (Huh-7, read-out: ZIKV EC50), 0.5 µM.

With `C#CC1(O)C(O)[C@@H](CO)O[C@H]1n1ccc2c(N)ncnc21` (some centres unmarked), the EC50 in [4] (setting [14]) was found to be 0.34 µM. In [5], this compound had a CC50 at 5 days of 35.4 µM.

Consider `C#C[C@@]1(O)[C@H](O)[C@@H](CO[P@@](=O)(N[C@@H](C)C(=O)OC(C)C)Oc2ccccc2)O[C@H]1n1ccc2c(N)ncnc21` [drawing 740], for which, in data set [6] (DENV2, BHK-21, read-out: DENV2 New Guinea C EC50), the EC50 is 27.7 µM.

Turning to `C#C[C@@]1(O)[C@H](O)[C@@H](CO)O[C@H]1n1cnc2cnc(N)nc21` [drawing 743], the EC50 in [2] was over 100 µM.

Take ZIKV NS5 RdRp (Zika virus): the Km in [7] turned out to be 6.59 µM; in data set [8], 1.26 µM; in data set [9], 1.45 µM; in data set [10], 2.82 µM; in data set [11], 3.03 µM; in [12], 72.82 µM.

As to `C#CC1(O)C(O)[C@@H](COP(=O)(O)OP(=O)(O)OP(=O)(O)O)O[C@H]1n1ccc(=O)[nH]c1=O` (some centres unmarked), the “ZIKV Polymerase Assay Discrimination” value in [1] was found to be 5.

Consider `C#C[C@@]1(O)[C@H](O)[C@@H](CO)O[C@H]1n1cc(F)c(=O)[nH]c1=O`, for which the EC50 in data set [3] (setting [15]) is over 100 µM.

Take `CC(C)(C)C(=O)OCOP(=O)(OCOC(=O)C(C)(C)C)OC[C@H]1O[C@@H](n2ccc(=O)[nH]c2=O)C(C)(O)C1O` (some centres unmarked): the 50% effective concentration (EC50) in [4] (setting [14]) was found to be 3.57 µM. This compound also showed a CC50 at 5 days in data set [5] of 26.4 µM.

For `CC1(O)C(O)[C@@H](CO)O[C@H]1n1cnc2c(N)ncnc21` (some centres unmarked) [drawing 678], the EC50 in data set [4] (setting [14]) was 2.75 µM. The compound also displayed a CC50 at 5 days in data set [5] of over 100 µM.

Take `CC1(O)C(O)[C@@H](CO)O[C@H]1n1cnc2c(N)ncnc21` (some centres unmarked) [drawing 675]: in [4] (ZIKV infectious assay, Vero cells), the EC50 was 2.46 µM. Moreover, the CC50 in data set [13] is over 100 µM.
